Data as given in patent US8507523B2, “Therapeutic tetrahydroisoquinoline-based compositions for cancer therapy” (priority 2006, dated 2013).
Where a name gives a salt, the structure may show the parent alone. Read-outs that look alike come from different tables or passages of the source.

Tests used:
[1] = tested on: normal primary cultures of rat brain astrocytes; test: Dose response (percent survival) in primary cultures of astrocytes; type: cell-based; conditions: 4 days of treatment
Source text: (§1) 6,7-Dimethoxy-1-[4-(4-methoxypyridin-3-yl)benzyl]-1,2,3,4-tetrahydroisoquinolinehydrochloride (EDL-291) was synthesized as described herein in the laboratory of Dr. Duane D. Miller at The University of Tennessee Health Science Center. Briefly, the primary cultures of astrocytes and cultures of C6 glioma cell lines were handled identically with respect to treatment concentrations and manipulations of cells for the screening assays. The cells were trypsinized and transferred to 96-well plates at a cell density of 10^3 cells/mm^2 in the wells. The cells were grown overnight in 100 μL of 10% FCS BME in a 37° C. incubator containing a humid, 5% CO2 atmosphere.
(§2) EDL291 was dissolved completely to make a […] stock solution and diluted to produce a series of concentrations. A 20 μL aliquot of these initial solutions was added to 180 μl of 2% FCS BME to produce the test concentration. The vehicle solution was tested as a control. […] Immediately before treatment, the 10% FCS BME was removed from the cells and replaced with the 180 μl of the treatment medium. The cultured cells (normal primary cultures of rat brain astrocytes or C6 glioma purchased from ATCC) were incubated with test compound for 4 days. The cells were fixed with 4% paraformaldehyde, stained with 0.1% Cresylecth violet stain, and quantitated. The screening data was collected as four wells for each dose per compound (screening) or concentration (dose response curve). Also, the average growth of 8 wells with no treatment was used as a negative control for each plate (100% growth). The cells for dose response curves were grown in the same media and were handled in a similar manner as in the screening assays.
(§3) The cytotoxic character of each compound was reported as the percent survival, calculated as the average A560 for treated cells divided by A560 of untreated (100% control) cells, and expressed as a percentage. Values less than 100% indicate a cytostatic or cytotoxic effect. Dose response curves and EC50 values were attained via plots of percent survival vs. concentration.

[2] = tested on: C6 glioma; test: Dose response (percent survival) in C6 glioma cell cultures; type: cell-based, rat; conditions: C6 glioma cells, 4 days of treatment, percent survival
Source text: as §1, §2, §3

[3] = Rattus norvegicus, Astrocyte, 96 h
[4] = Rattus norvegicus, C6 glioma, 96 h

| SMILES | EC50 [1, 3] | EC50 [2, 4] | EC50 μM Astrocyte [1] | further results |
| --- | --- | --- | --- | --- |
| COc1cc2c(cc1OC)C(Cc1ccc(-c3cnccc3OC)cc1)N(C)CC2 (stereo not drawn) [Compound 23, 6,7-Dimethoxy-1-[4-(4-methoxypyridin-3-yl)benzyl]-2-methyl-1,2,3,4-tetrahydroisoquinoline hydrochloride] | 28.2 µM | 3.3 µM |  |  |
| COc1ncc(-c2ccc(CC3NCCc4cc(OC)c(OC)cc43)cc2)c(OC)n1 (stereo not drawn) [Compound 26, 1-[4-(2,4-Dimethoxypyrimidin-5-yl)benzyl]-6,7-dimethoxy-1,2,3,4-tetrahydroisoquinoline hydrochloride] | 34 µM | 9.3 µM |  |  |
| COc1cc2c(cc1OC)C(Cc1ccc(-c3cncnc3)cc1)NCC2.Cl (stereo not drawn) [Compound 29, 6,7-Dimethoxy-1-(4-pyrimidin-5-ylbenzyl)-1,2,3,4-tetrahydroisoquinoline hydrochloride] |  | 39.4 µM | No Effect |  |
| COc1cc2c(cc1OC)C(Cc1ccc(-c3ccccc3NC(C)=O)cc1)N(C(=O)OC(C)(C)C)CC2 (stereo not drawn) [Compound 17, 1-(2′-Acetylaminobiphenyl-4-ylmethyl)-6,7-dimethoxy-3,4-dihydro-1H-isoquinoline-2-carboxylic acid tert-butyl ester] |  | 9.2 µM | No Effect |  |
| COc1cc2c(cc1OC)C(Cc1ccc(-c3cccnc3Cl)cc1)NCC2 (stereo not drawn) [Compound 32, 1-[4-(2-Chloro-pyridin-3-yl)benzyl]-6,7-dimethoxy-1,2,3,4-tetrahydroisoquinoline hydrochloride] | 28.2 µM | 2.7 µM |  |  |
| COc1cc2c(cc1OC)C(Cc1ccc(-c3ccncc3OC)cc1)N(C(=O)OC(C)(C)C)CC2 (stereo not drawn) [Compound 11, 6,7-Dimethoxy-1-[4-(3-methoxypyridin-4-yl)benzyl]-3,4-dihydro-1H-isoquinoline-2-carboxylic acid tert-butyl ester] | 13.6 µM | 4.4 µM |  |  |
| COc1cc2c(cc1OC)C(Cc1ccc(-c3cncnc3)cc1)N(C(=O)OC(C)(C)C)CC2 (stereo not drawn) [Compound 28, 6,7-Dimethoxy-1-(4-pyrimidin-5-ylbenzyl)-3,4-dihydro-1H-isoquinoline-2-carboxylic acid tert-butyl ester] |  | 15.2 µM | No Effect |  |
| COc1cc2c(cc1OC)C(Cc1ccc(-c3ccncc3)cc1)N(C(=O)OC(C)(C)C)CC2 (stereo not drawn) [Compound 3, 6,7-Dimethoxy-1-(4-pyridin-4-yl-benzyl)-3,4-dihydro-1H-isoquinoline-2-carboxylic acid tert-butyl ester] | 18.4 µM | 5.92 µM |  |  |
| COc1cc2c(cc1OC)C(Cc1ccc(-c3ccccc3NS(C)(=O)=O)cc1)N(C(=O)OC(C)(C)C)CC2 (stereo not drawn) [Compound 14, 1-(2′-Methanesulfonylaminobiphenyl-4-ylmethyl)-6,7-dimethoxy-3,4-dihydro-1H-isoquinoline-2-carboxylic acid tert-butyl ester] |  | 6.2 µM | No Effect |  |
| COc1cc2c(cc1OC)C(Cc1ccc(-c3cnccc3OC)cc1)N(C(=O)OC(C)(C)C)CC2 (stereo not drawn) [Compound 20, 6,7-Dimethoxy-1-[4-(4-methoxypyridin-3-yl)benzyl]-3,4-dihydro-1H-isoquinoline-2-carboxylic acid tert-butyl ester] | 12.2 µM | 5.9 µM |  |  |
| Clc1ccncc1-c1ccc(CC2NCCc3cc4c(cc32)OCO4)cc1 (stereo not drawn) [Compound 42, 5-[4-(4-Chloropyridin-3-yl)benzyl]-5,6,7,8-tetrahydro-[1,3]dioxolo[4,5-g]isoquinoline dihydrochloride salt] | 81.5 µM | 2.5 µM |  |  |
| COc1ccncc1-c1ccc(CC2NCCc3cc4c(cc32)OCO4)cc1 (stereo not drawn) [Compound 45, 5-[4-(4-methoxypyridin-3-yl)benzyl]-5,6,7,8-tetrahydro-[1,3]dioxolo[4,5-g]isoquinoline dihydrochloride salt] | 8.3 µM | 1.3 µM |  |  |
| COc1cc2c(cc1OC)C(Cc1ccc(-c3cccnc3OC)cc1)N(C)CC2 (stereo not drawn) [Compound 9, 6,7-Dimethoxy-1-[4-(2-methoxypyridin-3-yl)benzyl]-2-methyl-1,2,3,4-tetrahydroisoquinolinehydrochloride] |  |  |  | EC50 ([1]; read-out: EC50 μM Astrocyte): 25.3 µM; EC50 ([2]; listed as drawing 27): 5.5 µM |
| COc1cc2c(cc1OC)C(Cc1ccc(-c3cccnc3OC)cc1)N(C)CC2 (stereo not drawn) [Compound 8, 6,7-dimethoxy-1-[4-(2-methoxypyridin-3-yl)benzyl]-2-methyl-1,2,3,4-tetrahydro-isoquinoline] | 27.3 µM |  |  | EC50 ([2]; listed as drawing 26): 2.2 µM |
| COc1cc2c(cc1OC)C(Cc1ccc(-c3ccccc3NC(C)=O)cc1)NCC2.Cl (stereo not drawn) [Compound 18, N-[4′-(6,7-Dimethoxy-1,2,3,4-tetrahydroisoquinolin-1-ylmethyl)biphenyl-2-yl]acetamide hydrochloride salt] |  | 22.4 µM | No Effect |  |
| COc1cc2c(cc1OC)C(Cc1ccc(-c3cccnc3OC)cc1)N(C(=O)OC(C)(C)C)CC2 (stereo not drawn) [Compound 6, 6,7-Dimethoxy-1-[4-(2-methoxypyridin-3-yl)benzyl]-3,4-dihydro-1H-isoquinoline-2-carboxylic acid tert-butyl ester] |  | 4.3 µM | No Effect |  |
| COc1ncc(-c2ccc(CC3c4cc(OC)c(OC)cc4CCN3C(=O)OC(C)(C)C)cc2)c(OC)n1 (stereo not drawn) [Compound 25, 1-[4-(2,4-Dimethoxypyrimidin-5-yl)benzyl]-6,7-dimethoxy-3,4-dihydro-1H-isoquinoline-2-carboxylic acid tert-butyl ester] |  | 6.8 µM | No Effect |  |
| COc1cc2c(cc1OC)C(Cc1ccc(-c3ccncc3)cc1)NCC2 (stereo not drawn) [Compound 4, 6,7-Dimethoxy-1-(4-pyridin-4-ylbenzyl)-1,2,3,4-tetrahydroisoquinoline hydrochloride salt] | 74.4 µM | 17.7 µM |  |  |
| COc1cc2c(cc1OC)C(Cc1ccc(-c3cccnc3Cl)cc1)N(C(=O)OC(C)(C)C)CC2 (stereo not drawn) [Compound 31, 1-[4-(2-Chloro-pyridin-3-yl)benzyl]-6,7-dimethoxy-3,4-dihydro-1H-isoquinoline-2-carboxylic acid tert-butyl ester] |  | 3.5 µM | No Effect |  |
| CC(C)(C)OC(=O)N1CCc2cc3c(cc2C1Cc1ccc(-c2cnccc2Cl)cc1)OCO3 (stereo not drawn) [Compound 40, 5-[4-(4-Chloropyridin-3-yl)benzyl]-7,8-dihydro-5H-[1,3]dioxolo[4,5-g]isoquinoline-6-carboxylic acid tert-butyl ester] | 37.5 µM | 6.3 µM |  |  |
| COc1cc2c(cc1OC)C(Cc1ccc(-c3ccccc3NS(C)(=O)=O)cc1)NCC2 (stereo not drawn) [Compound 15, N-[4′-(6,7-Dimethoxy-1,2,3,4-tetrahydroisoquinolin-1-ylmethyl)-biphenyl-2-yl]-methanesulfonamide hydrochloride salt] | 50 to 100 µM | 8.9 µM |  |  |
| COc1cc2c(cc1OC)C(Cc1ccc(-c3cccnc3OC)cc1)NCC2 (stereo not drawn) [Compound 7, 6,7-Dimethoxy-1-[4-(2-methoxypyridin-3-yl)benzyl]-1,2,3,4-tetrahydroisoquinoline hydrochloride salt] | 50 to 100 µM | 1.75 µM |  |  |
| COc1cc2c(cc1OC)C(Cc1ccc(-c3ccncc3OC)cc1)NCC2 (stereo not drawn) [Compound 12, 6,7-Dimethoxy-1-[4-(3-methoxypyridin-4-yl)benzyl]-1,2,3,4-tetrahydroisoquinoline hydrochloride salt] | 49.5 µM | 6.9 µM |  |  |
| COc1ccncc1-c1ccc(CC2c3cc4c(cc3CCN2C(=O)OC(C)(C)C)OCO4)cc1 (stereo not drawn) [Compound 43, 5-[4-(4-methoxypyridin-3-yl)benzyl]-7,8-dihydro-5H-[1,3]dioxolo[4,5-g]isoquinoline-6-carboxylic acid tert-butyl ester] | 12.4 µM | 5.8 µM |  |  |
